# Laboratory results as given in PubChem BioAssay AID1963844 (Molecular Pharmacology Branch, DTP, NCI, 2024).
# System: 422866-222-R5-J1-PDC complex spheroid viability
# Assay: Anticancer human tumor 422866-222-R5-J1-PDC patient-derived pancreatic adenocarcinoma cell line growth inhibition [POLQ]
# Settings: for IC50: curve of first compound; for viability, T/C: stronger effect = lower value
# Outline: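 Complex spheroid viability model combining PDC tumour cells with endothelial (HUVEC) and MSC stromal cells. Novobiocin, ART-558 or RP6685 were tested singly and in combination with standard and investigational anticancer drugs. Each was titrated in half-log steps from near clinical Cmax, or from 10 microM where Cmax was unknown.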
# [1] = second compound 0.0316 µM, first compound 0.000316 µM
# [2] = second compound 0.0316 µM, first compound 0.001 µM
# [3] = second compound 0.0316 µM, first compound 0.00316 µM
# [4] = second compound 0.0316 µM, first compound 0.01 µM
# [5] = second compound 0.0316 µM, first compound 0.0316 µM
# [6] = second compound 0.0316 µM, first compound 0.1 µM
# [7] = second compound 0.1 µM, first compound 0.000316 µM
# [8] = second compound 0.1 µM, first compound 0.001 µM
# [9] = second compound 0.1 µM, first compound 0.00316 µM
# [10] = second compound 0.1 µM, first compound 0.01 µM
# [11] = second compound 0.1 µM, first compound 0.0316 µM
# [12] = second compound 0.1 µM, first compound 0.1 µM
# [13] = second compound 0.316 µM, first compound 0.000316 µM
# [14] = second compound 0.316 µM, first compound 0.001 µM
# [15] = second compound 0.316 µM, first compound 0.00316 µM
# [16] = second compound 0.316 µM, first compound 0.01 µM
# [17] = second compound 0.316 µM, first compound 0.0316 µM
# [18] = second compound 0.316 µM, first compound 0.1 µM
# [19] = second compound 1 µM, first compound 0.000316 µM
# [20] = second compound 1 µM, first compound 0.001 µM
# [21] = second compound 1 µM, first compound 0.00316 µM
# [22] = second compound 1 µM, first compound 0.01 µM
# [23] = second compound 1 µM, first compound 0.0316 µM
# [24] = second compound 1 µM, first compound 0.1 µM
# [25] = second compound 3.16 µM, first compound 0.000316 µM
# [26] = second compound 3.16 µM, first compound 0.001 µM
# [27] = second compound 3.16 µM, first compound 0.00316 µM
# [28] = second compound 3.16 µM, first compound 0.01 µM
# [29] = second compound 3.16 µM, first compound 0.0316 µM
# [30] = second compound 3.16 µM, first compound 0.1 µM
# [31] = second compound 10 µM, first compound 0.000316 µM
# [32] = second compound 10 µM, first compound 0.001 µM
# [33] = second compound 10 µM, first compound 0.00316 µM
# [34] = second compound 10 µM, first compound 0.01 µM
# [35] = second compound 10 µM, first compound 0.0316 µM
# [36] = second compound 10 µM, first compound 0.1 µM
# 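Note: spheroids exposed to compounds for one week before readout.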
# 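Throughout, for viability, T/C: percent of DMSO vehicle wells luminescence so 100% = untreated viability.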
compound,measurement,setting,value
CC[C@@]1(O)C(=O)OCc2c1cc1n(c2=O)Cc2cc3c(CN(C)C)c(O)ccc3nc2-1 + Cc1cccc(N(C)C(=O)C2C(O)CCN2c2nc(C)cc(C(F)(F)F)c2C#N)c1,IC50,second compound 0.0316 µM,30.7 nM
same,IC50,second compound 0.1 µM,24.1 nM
same,IC50,second compound 0.316 µM,31.2 nM
same,IC50,second compound 1 µM,47 nM
same,IC50,second compound 3.16 µM,25.9 nM
same,IC50,second compound 10 µM,31.3 nM
same,"viability, T/C",[1],104%
same,"viability, T/C",[2],101%
same,"viability, T/C",[3],85.7%
same,"viability, T/C",[4],75.7%
same,"viability, T/C",[5],42.5%
same,"viability, T/C",[6],45.5%
same,"viability, T/C",[7],105%
same,"viability, T/C",[8],104%
same,"viability, T/C",[9],97%
same,"viability, T/C",[10],62.6%
same,"viability, T/C",[11],46.2%
same,"viability, T/C",[12],44.4%
same,"viability, T/C",[13],114%
same,"viability, T/C",[14],105%
same,"viability, T/C",[15],98.2%
same,"viability, T/C",[16],87.5%
same,"viability, T/C",[17],47.6%
same,"viability, T/C",[18],46.3%
same,"viability, T/C",[19],114%
same,"viability, T/C",[20],111%
same,"viability, T/C",[21],91%
same,"viability, T/C",[22],77.5%
same,"viability, T/C",[23],53.5%
same,"viability, T/C",[24],41.1%
same,"viability, T/C",[25],96.2%
same,"viability, T/C",[26],108%
same,"viability, T/C",[27],98.9%
same,"viability, T/C",[28],80.3%
same,"viability, T/C",[29],40.8%
same,"viability, T/C",[30],46.6%
same,"viability, T/C",[31],82%
same,"viability, T/C",[32],106%
same,"viability, T/C",[33],102%
same,"viability, T/C",[34],77%
same,"viability, T/C",[35],50.7%
same,"viability, T/C",[36],48.8%
Cn1ncnc1[C@H]1c2n[nH]c(=O)c3cc(F)cc(c23)N[C@@H]1c1ccc(F)cc1 + COC1C(OC(N)=O)C(O)C(Oc2ccc3c(O)c(NC(=O)c4ccc(O)c(CC=C(C)C)c4)c(=O)oc3c2C)OC1(C)C,IC50,second compound 0.0316 µM,> 100 nM
same,IC50,second compound 0.1 µM,> 100 nM
same,IC50,second compound 0.316 µM,> 100 nM
same,IC50,second compound 1 µM,> 100 nM
same,IC50,second compound 3.16 µM,> 100 nM
same,IC50,second compound 10 µM,> 100 nM
same,"viability, T/C",[1],108%
same,"viability, T/C",[2],100%
same,"viability, T/C",[3],90%
same,"viability, T/C",[4],88.6%
same,"viability, T/C",[5],86.6%
same,"viability, T/C",[6],83.1%
same,"viability, T/C",[7],119%
same,"viability, T/C",[8],87.2%
same,"viability, T/C",[9],104%
same,"viability, T/C",[10],87%
same,"viability, T/C",[11],88.5%
same,"viability, T/C",[12],90.3%
same,"viability, T/C",[13],96.1%
same,"viability, T/C",[14],104%
same,"viability, T/C",[15],98.8%
same,"viability, T/C",[16],78.9%
same,"viability, T/C",[17],87.3%
same,"viability, T/C",[18],85.3%
same,"viability, T/C",[19],99%
same,"viability, T/C",[20],110%
same,"viability, T/C",[21],100%
same,"viability, T/C",[22],85.4%
same,"viability, T/C",[23],89.6%
same,"viability, T/C",[24],86.6%
same,"viability, T/C",[25],98%
same,"viability, T/C",[26],87.1%
same,"viability, T/C",[27],105%
same,"viability, T/C",[28],100%
same,"viability, T/C",[29],89.8%
same,"viability, T/C",[30],95.6%
same,"viability, T/C",[31],78.8%
same,"viability, T/C",[32],86.2%
same,"viability, T/C",[33],97.1%
same,"viability, T/C",[34],92.3%
same,"viability, T/C",[35],88.7%
same,"viability, T/C",[36],87.7%
C=CC(=O)N1CCN(c2nc(=O)n(-c3c(C)ccnc3C(C)C)c3nc(-c4c(O)cccc4F)c(F)cc23)C(C)C1 (stereo not drawn) + Nc1ccc(C#CCN(C(=O)Cc2ncc(C(F)(F)F)cc2C(F)(F)F)c2ccc(F)cc2)nn1,IC50,second compound 0.0316 µM,< 31.6 nM
same,IC50,second compound 0.1 µM,< 31.6 nM
same,IC50,second compound 0.316 µM,< 31.6 nM
same,IC50,second compound 1 µM,< 31.6 nM
same,IC50,second compound 3.16 µM,< 31.6 nM
same,IC50,second compound 10 µM,< 31.6 nM
same,"viability, T/C",[5],32.5%
same,"viability, T/C",[6],28.5%
same,"viability, T/C","second compound 0.0316 µM, first compound 0.316 µM",28.3%
same,"viability, T/C","second compound 0.0316 µM, first compound 1 µM",28.5%
same,"viability, T/C","second compound 0.0316 µM, first compound 3.16 µM",27.4%
same,"viability, T/C","second compound 0.0316 µM, first compound 10 µM",23.7%
same,"viability, T/C",[11],32%
same,"viability, T/C",[12],31.2%
same,"viability, T/C","second compound 0.1 µM, first compound 0.316 µM",24%
same,"viability, T/C","second compound 0.1 µM, first compound 1 µM",25.7%
same,"viability, T/C","second compound 0.1 µM, first compound 3.16 µM",23.7%
same,"viability, T/C","second compound 0.1 µM, first compound 10 µM",22.4%
same,"viability, T/C",[17],40.1%
same,"viability, T/C",[18],27.8%
same,"viability, T/C","second compound 0.316 µM, first compound 0.316 µM",29%
same,"viability, T/C","second compound 0.316 µM, first compound 1 µM",24.4%
same,"viability, T/C","second compound 0.316 µM, first compound 3.16 µM",25.1%
same,"viability, T/C","second compound 0.316 µM, first compound 10 µM",24.2%
same,"viability, T/C",[23],34%
same,"viability, T/C",[24],33.1%
same,"viability, T/C","second compound 1 µM, first compound 0.316 µM",25.9%
same,"viability, T/C","second compound 1 µM, first compound 1 µM",23.2%
same,"viability, T/C","second compound 1 µM, first compound 3.16 µM",22.2%
same,"viability, T/C","second compound 1 µM, first compound 10 µM",21.1%
same,"viability, T/C",[29],33.4%
same,"viability, T/C",[30],27.7%
same,"viability, T/C","second compound 3.16 µM, first compound 0.316 µM",29.6%
same,"viability, T/C","second compound 3.16 µM, first compound 1 µM",24.5%
same,"viability, T/C","second compound 3.16 µM, first compound 3.16 µM",24.4%
same,"viability, T/C","second compound 3.16 µM, first compound 10 µM",29.1%
same,"viability, T/C",[35],30.8%
same,"viability, T/C",[36],32.6%
same,"viability, T/C","second compound 10 µM, first compound 0.316 µM",32.4%
same,"viability, T/C","second compound 10 µM, first compound 1 µM",26.3%
same,"viability, T/C","second compound 10 µM, first compound 3.16 µM",24.9%
same,"viability, T/C","second compound 10 µM, first compound 10 µM",27.6%
Cn1ncnc1[C@H]1c2n[nH]c(=O)c3cc(F)cc(c23)N[C@@H]1c1ccc(F)cc1 + Nc1ccc(C#CCN(C(=O)Cc2ncc(C(F)(F)F)cc2C(F)(F)F)c2ccc(F)cc2)nn1,IC50,second compound 0.0316 µM,> 100 nM
same,IC50,second compound 0.1 µM,> 100 nM
same,IC50,second compound 0.316 µM,> 100 nM
same,IC50,second compound 1 µM,> 100 nM
same,IC50,second compound 3.16 µM,> 100 nM
same,IC50,second compound 10 µM,> 100 nM
same,"viability, T/C",[1],91.5%
same,"viability, T/C",[2],115%
same,"viability, T/C",[3],80.7%
same,"viability, T/C",[4],104%
same,"viability, T/C",[5],88.3%
same,"viability, T/C",[6],75.7%
same,"viability, T/C",[7],101%
same,"viability, T/C",[8],106%
same,"viability, T/C",[9],110%
same,"viability, T/C",[10],85.2%
same,"viability, T/C",[11],81.7%
same,"viability, T/C",[12],74.1%
same,"viability, T/C",[13],112%
same,"viability, T/C",[14],108%
same,"viability, T/C",[15],86.1%
same,"viability, T/C",[16],91.6%
same,"viability, T/C",[17],92.7%
same,"viability, T/C",[18],75.2%
same,"viability, T/C",[19],109%
same,"viability, T/C",[20],93.6%
same,"viability, T/C",[21],98.8%
same,"viability, T/C",[22],98.8%
same,"viability, T/C",[23],77%
same,"viability, T/C",[24],87.9%
same,"viability, T/C",[25],115%
same,"viability, T/C",[26],111%
same,"viability, T/C",[27],98.1%
same,"viability, T/C",[28],94.9%
same,"viability, T/C",[29],89.1%
same,"viability, T/C",[30],92.4%
same,"viability, T/C",[31],101%
same,"viability, T/C",[32],111%
same,"viability, T/C",[33],108%
same,"viability, T/C",[34],95.7%
same,"viability, T/C",[35],86.1%
same,"viability, T/C",[36],77.9%
